Data published in patent US20160113895A1, “Novel Use of Adapalene in Treating Esophageal Cancer and Gastrointestinal Stromal Tumor” (Biodelight Biotech Inc., priority 2013, published 2016).
*1 amine or outer side, *2 acyl side, *3 side chain or, on linkers, in order; H or OH if unused. Where a SMILES comes first, the peptide text is derived from it. Bridges are numbered along the chain shown (N, C = ends). Roman numbers before positions name the chains, in order. [ ]: non-standard residue; d: D form. Actinocin(9to1) = Cc1c2oc3c(C)ccc(C(=O)[*:1])c3nc-2c(C(=O)[*:2])c(N)c1=O; NMeV = CN[C@H](C(=O)O)C(C)C; Sar = CNCC(=O)O

How the values were obtained:
[1] = system: H1299; test: 2D cell proliferation assay (Alamar Blue), H1299; format: cell-based, human
Source text: (§1) Nsl-8 was subjected to 2D cell proliferation assays using four NSCLC cell lines (A549 (human adenocarcinomic alveolar basal epithelial cells with k-ras gene mutation), H1299 (human non-small cell lung carcinoma cell line with p53 mutation), H460 (human non-small cell lung carcinoma cell line with k-ras gene mutation), and HCC827 (human NSCLC cells with EGFR mutation of deletion from E746 to A750)) and the results were presented in Table 2. There were eight concentrations used for each drug for determining its IC50. […]. Actinomycin D was a chemotherapeutic drug simply used as a quality control for all the experiments.
(§2) In the 2D cell proliferation assay, cells were cultured in DMEM containing 10% FCS and Penicillin/Streptomycin. For the assays, cells were seeded in 150 μL medium on a 96-well cell culture plate and incubated at 37° C. overnight before the compounds were added. Compounds were prepared as predilution which was 16 fold concentrated to the final assay concentration. A day after cell seeding, 10 μL of prediluted compounds was added to the cells (1:16 dilution). Treatment of cells with 0.1% DMSO or 1% DMSO (for the two top concentrations of nsl-8) and 1.0E-05 M Staurosporine was served as high control (100% viability) and low control (0% viability), respectively. Measurement of the impact of compounds on cell viability was performed as follows: 5000 cells (A549 and HCC827) or 2500 cells (H1299 and H460) were seeded in the inner wells of 96-well-plates in 150 μL complete medium. Next day, compounds were added to the medium to reach the final concentration and then incubated at 37° C. in 5% or 10% CO2 depending on the medium for 72 h. Subsequently 10 μL Alamar Blue reagent was added and fluorescence at 590 nm was measured after 5 h incubation at 37° C. in 5% CO2 using a fluorometer.
(§3) Raw data were converted into percent cell viability relative to high control (solvent 0.1% DMSO or 1% DMSO for the two top concentrations of drug nsl-8) and low control (1.0E-05 M Staurosporine), which were set to 100% and 0%, respectively.

[2] = system: H460; test: 3D cell proliferation assay (soft agar), H460; format: cell-based, human; settings: 3D soft agar
Procedure: (§4) Drug nsl-8 was further subjected to a 3D cell proliferation assay for assessing its potential in inhibiting the growth of NSCLC tumors. The same four NSCLC cell lines used in 2D proliferation assays were grown in soft agar and the drug was added after the agar has solidified. The drug added cells were then incubated several days until colonies have formed in the solvent control. Subsequently, Alamar Blue which was a cell viability reagent was added and the corresponding fluorescence released was measured as an indirect quantification of colony growth in soft agar.
(§5) For each cell line, some 96 well culture plates were prepared. 100 μL of the soft agar bottom layer (0.6% final concentration in complete medium) was poured and left to solidify. 50 μL of the soft agar top layer (0.4% final concentration) containing the corresponding cells and cell number were then added on top, solidified and such 96 well plates were incubated overnight at 37° C. in 10% CO2. Next day, drugs were added at indicated final concentrations into the inner wells of the plate. Subsequently, the assays were incubated in cell culture incubators for the indicated period of time. Finally, the assays were developed using Alamar Blue and upon 3-5 h of incubation at 37 ° C. fluorescence intensity was determined (excitation: 560 nm, emission: 590 nm). […]

[3] = system: H460; test: 2D cell proliferation assay (Alamar Blue), H460; format: cell-based, human
Source text: as §1, §2, §3

[4] = system: HCC827; test: 2D cell proliferation assay (Alamar Blue), HCC827; format: cell-based, human; settings: HCC827, 72 h
Procedure: There were eight concentrations used for each drug for determining its IC50. […] Actinomycin D was a chemotherapeutic drug simply used as a quality control for all the experiments.
as §2, with “Compounds were prepared as predilution which was 16 fold concentrated to the final assay concentration.” left out, “h.” for “h. Subsequently 10 μL Alamar Blue reagent was added and fluorescence at 590 nm was measured after 5 h incubation at 37° C. in 5% CO2 using a fluorometer.”
as §3

[5] = system: A549; test: 3D cell proliferation assay (soft agar), A549; format: cell-based, human; settings: 3D soft agar
Procedure: as §4, §5

[6] = system: HCC827; test: 3D cell proliferation assay (soft agar), HCC827; format: cell-based, human; settings: 3D soft agar
Procedure: as §4, §5

[7] = system: A549; test: 2D cell proliferation assay (Alamar Blue), A549; format: cell-based, human; settings: A549, 72 h
Source text: as §1, §2, §3

[8] = system: H1299; test: 3D cell proliferation assay (soft agar), H1299; format: cell-based, human; settings: 3D soft agar
Procedure: as §4, §5

[9] = system: A549 implanted tumors; test: Subcutaneous A549 xenograft model, groups 2a-2c, o.p.; settings: for Tumor inhibition rate (%): A549, o.p. once daily, NSL-8 70 mpk, Tarceva 20 mpk
Procedure: The antitumor efficacy of the drug lead nsl-8 searched was studied using the subcutaneous xenografted A549 and HCC827 lung cancer tumor models in vivo. […] Mice were maintained in individual ventilated cages (IVC, max. 4 mice/cage) at constant temperature and humidity. Animal weights were determined three times (Monday, Wednesday and Friday) for groups 1a and 1b or two times (Monday and Thursday) for groups 2a-2c and 3a-3c animals. Animal behaviour was monitored daily.
On day 0, either 2×10^6 A549 or 2×10^6 HCC827 tumor cells in 100 μL PBS were implanted into the subcutaneous space of the left flank of all corresponding BALB/c nude and SCID mice, respectively. In the following, tumor sizes were determined by caliper measurement. Tumor sizes were calculated according to the formula W^2×Lg/2 (Lg=length and W=the perpendicular width of the tumor, L>W). On day 48 or 30, after mean tumor volumes had reached approx. 100 mm^3, the corresponding tumor-bearing animals were randomized into 2 groups of 8 (A549 model: groups 1a and 1b) or 10 animals (A549 model: groups 2a and 2b) according to tumor sizes. On day 24 or 28, after mean tumor volumes had reached approx. 100 mm^3, the corresponding tumor-bearing animals were randomized into 2 groups of 10 animals (HCC827 model: groups 3a and 3b) according to tumor sizes. […] The percentage of tumor growth inhibition (TGI) was calculated using the following formula: […]
where T and C represent the mean tumor volume of the treatment and the control group, respectively.
The solution was aliquoted into several 15 ml sterile centrifuge tubes in 650 μl quantity per tube and then stored frozen at −80° C. until use. […] Animals of group 1b received 40 mg/kg nsl-8 dosage solution once daily through i.p. route on days 48-52 and 62-66, while those of groups 2b and 3b received 70 mg/kg nsl-8 dosage solution once daily through o.p. route on days 1-14 (group 2b) and days 1-14 (group 3b), respectively (Table 4).
Groups 1a and 1b (A549 model) were terminated on day 69, while groups 2a-2c (A549 model) and 3a-3c (HCC827 model) were terminated on day 15. At necropsy, animals were killed by cervical dislocation. Primary tumor weights and volumes were determined. The tumor volume and weight were analysed using descriptive data analysis (Mean, SEM, Median). Statistical analysis of efficacy data was performed using the unpaired t-test. All the data analyses were performed using GraphPad Prism 5 from GraphPad Software, Inc., San Diego, USA.
The serum level of blood urea nitrogen (BUN) was measured for assessing the renal function while those of alanine aminotransferase (ALT) and aspartate aminotransferase (AST) were measured using Ektachem DT system (Johnson & Johnson Clinical Diagnostics) for assessing the liver function. The EDTA treated anticoagulated blood samples were also collected for making a complete peripheral blood count by using a Hematology Analyzer (Sysmex, XT-1800i).
For this study, 0.161 ml nsl-8 stock solution made in DMSO was mixed with 1.339 ml 0.9% w/v saline so that the volume of a final dosage solution prepared to feed an animal was 1.5 ml and containing 10% DMSO. Therefore, both administration routes and vehicles used in treating groups 2a-2b and 3a-3b animals were quite different from that used in treating groups 1a-1b animals.

SMILES: Cc1c2oc3c(C)ccc(C(=O)N[C@@H]4C(=O)N[C@H](C(C)C)C(=O)N5CCC[C@H]5C(=O)N(C)CC(=O)N(C)[C@@H](C(C)C)C(=O)O[C@@H]4C)c3nc-2c(C(=O)N[C@@H]2C(=O)N[C@H](C(C)C)C(=O)N3CCC[C@H]3C(=O)N(C)CC(=O)N(C)[C@@H](C(C)C)C(=O)O[C@@H]2C)c(N)c1=O [Actinomycin D] (I: T[dV]P[Sar][NMeV] / II: T[dV]P[Sar][NMeV]; ester I:1-I:C, II:1-II:C; linker I:N-II:N via Actinocin(9to1))
- IC50 ([1]; 2D, H1299, 72 h, read-out: IC50): 0.31 nM
- IC50 [2]: 0.67 nM
- IC50 ([3]; 2D, H460, 72 h, read-out: IC50): 0.42 nM
- IC50 [4]: 12 nM
- IC50 [5]: 0.84 nM
- IC50 [6]: 0.24 nM
- IC50 ([7]; 2D, read-out: IC50): 0.92 nM
- IC50 [8]: 0.82 nM

SMILES: C#Cc1cccc(Nc2ncnc3cc(OCCOC)c(OCCOC)cc23)c1 [Erlotinib]
- IC50 ([1]; Homo sapiens, NCI-H1299, 72 h): > 10000 nM
- cell counts of white blood cell, red blood cell, or platelet versus vehicle ([9]; A549 model, peripheral blood at end-point, nsl-8 70 mg/kg, Tarceva 20 mg/kg o.p.): no significant difference
- serum levels of BUN, ALT, and AST among treatment groups ([9]; A549 model, upon completion of the experiments): no significant difference
- Tumor inhibition rate (%) ([9]; Day 0): 0%
- Tumor inhibition rate (%) ([9]; Day 3): −16.7%
- Tumor inhibition rate (%) ([9]; Day 7): −19.0%
- Tumor inhibition rate (%) ([9]; Day 10): −22.0%
- Tumor inhibition rate (%) ([9]; Day 14): −29.6%
- inhibition in growth of A549 implanted tumors (in words) ([9]; group 2c, 20 mg/kg o.p. daily): no inhibition
- IC50 ([3]; Homo sapiens, NCI-H460, 72 h): > 10000 nM
- IC50 ([7]; Homo sapiens): > 10000 nM
